Laboratory results: ChEMBL document CHEMBL3232749, “Exploring the water-binding pocket of the type II dehydroquinase enzyme in the structure-based design of inhibitors” (J Med Chem, 2014)

Experiments:
[1] = Reversible competitive inhibition of Mycobacterium tuberculosis DHQ2 assessed as conversion of 3-dehydroquinic acid to 3-dehydroshikimic acid by Dixon plot analysis
[2] = molecular target: T1, 3-dehydroquinate dehydratase (Helicobacter pylori (strain ATCC 700392 / 26695) (Campylobacterpylori), UniProt Q48255); experiment: Reversible competitive inhibition of Helicobacter pylori DHQ2 assessed as conversion of 3-dehydroquinic acid to 3-dehydroshikimic acid by Dixon plot analysis
T1 sequence (Q48255 whole entry): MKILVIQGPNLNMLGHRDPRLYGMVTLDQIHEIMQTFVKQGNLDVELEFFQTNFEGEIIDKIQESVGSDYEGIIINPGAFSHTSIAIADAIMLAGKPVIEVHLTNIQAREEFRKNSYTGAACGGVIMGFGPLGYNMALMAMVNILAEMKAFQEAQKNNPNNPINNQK

Row | Structure (SMILES) | Ki [1] | Ki [2]
1 | O=C(O)[C@]1(O)C=C([C@H](O)Cc2ccccc2)[C@@H](O)[C@H](O)C1 | 27 µM | 33 µM
2 | O=C(O)[C@]1(O)C=C([C@@H](Cl)Cc2ccccc2)[C@@H](O)[C@H](O)C1 | 14.5 µM | 40.5 µM
3 | O=C(O)[C@]1(O)C=C(CO)[C@@H](O)[C@H](O)C1 | 11.2 µM | 282 µM
4 | O=C(O)[C@]1(O)C=C(CCO)[C@@H](O)[C@H](O)C1 | 15 µM | 188 µM
5 | O=C(O)[C@]1(O)C=C([C@H](Cl)Cc2ccccc2)[C@@H](O)[C@H](O)C1 | 0.48 µM | 10.5 µM
6 | O=C(O)[C@]1(O)C=C([C@@H](O)Cc2ccccc2)[C@@H](O)[C@H](O)C1 | 34 µM | 37 µM
